# Measured values reported in ChEMBL document CHEMBL4840344, “Discovery of 1,8-naphthalidine derivatives as potent anti-hepatic fibrosis agents via repressing PI3K/AKT/Smad and JAK2/STAT3 pathways” (Bioorg Med Chem, 2021).
# Active and inactive are the calls of the source. The calls are words filed in the database; no cut-off is given here.
# How the values were obtained:
# COL1A1 promoter [1] = assay: Inhibition of COL1A1 promotor activity in human LX2 cells at 20 uM incubated for 24 hrs by luciferase reporter gene assay; assay type: cell-based
# [2] = Cytotoxicity against human LX2 cells assessed as cell death incubated for 24 hrs by MTT assay; assay type: cell-based, LX-2
# COL1A1 promoter [3] = assay: Inhibition of COL1A1 promotor activity in human LX2 cells at 50 uM incubated for 24 hrs by luciferase reporter gene assay; assay type: cell-based
# [4] = Anti-fibrogenic activity in human LX2 cells assessed as inhibition of TGFbeta1-induced COL1A1 mRNA expression at 10 uM incubated for 24 hrs by RT-PCR analysis; assay type: functional; details: LX-2
# [5] = target: Tyrosine-protein kinase JAK2 (Homo sapiens) (UniProt O60674); assay: Inhibition of JAK2 phosphorylation in TGF-beta1 induced human LX2 cells at 3 to 10 uM incubated for 24 hrs by Western blot analysis; assay type: cell-based; details: dose 3-10 µM
# Sequence of Tyrosine-protein kinase JAK2 (Homo sapiens) (O60674 whole entry): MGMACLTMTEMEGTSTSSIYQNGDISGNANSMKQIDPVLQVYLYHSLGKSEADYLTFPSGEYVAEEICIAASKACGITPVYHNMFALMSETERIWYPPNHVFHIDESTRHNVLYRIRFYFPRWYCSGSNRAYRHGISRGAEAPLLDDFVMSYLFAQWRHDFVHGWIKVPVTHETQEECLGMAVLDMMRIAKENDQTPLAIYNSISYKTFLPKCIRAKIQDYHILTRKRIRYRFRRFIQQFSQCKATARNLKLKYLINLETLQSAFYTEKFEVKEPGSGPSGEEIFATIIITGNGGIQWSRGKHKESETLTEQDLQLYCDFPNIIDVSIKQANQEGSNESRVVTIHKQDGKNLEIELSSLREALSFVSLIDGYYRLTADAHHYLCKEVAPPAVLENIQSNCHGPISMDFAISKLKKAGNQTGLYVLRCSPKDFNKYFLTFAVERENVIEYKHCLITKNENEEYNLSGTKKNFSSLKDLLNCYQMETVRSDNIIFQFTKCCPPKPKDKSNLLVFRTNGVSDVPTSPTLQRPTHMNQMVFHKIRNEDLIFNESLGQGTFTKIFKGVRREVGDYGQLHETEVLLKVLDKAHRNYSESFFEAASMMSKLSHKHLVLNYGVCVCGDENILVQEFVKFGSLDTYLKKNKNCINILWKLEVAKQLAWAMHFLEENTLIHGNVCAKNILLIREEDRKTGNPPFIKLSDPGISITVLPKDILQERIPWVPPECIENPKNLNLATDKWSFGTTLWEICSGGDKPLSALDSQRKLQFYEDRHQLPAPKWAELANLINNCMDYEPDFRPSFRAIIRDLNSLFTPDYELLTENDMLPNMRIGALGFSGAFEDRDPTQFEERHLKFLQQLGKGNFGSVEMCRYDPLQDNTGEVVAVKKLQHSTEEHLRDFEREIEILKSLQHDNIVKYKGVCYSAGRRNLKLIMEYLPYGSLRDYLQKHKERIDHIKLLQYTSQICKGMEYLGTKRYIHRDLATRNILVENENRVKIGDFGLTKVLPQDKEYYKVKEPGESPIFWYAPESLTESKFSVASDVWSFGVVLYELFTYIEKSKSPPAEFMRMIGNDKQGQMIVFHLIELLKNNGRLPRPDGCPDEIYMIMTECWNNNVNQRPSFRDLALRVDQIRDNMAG
# LX-2 [6] = assay: Anti-fibrogenic activity in human LX2 cells assessed as inhibition of TGFbeta1-induced MMP2 protein level at 3 to 10 uM incubated for 24 hrs by Western blot analysis; assay type: functional, cell-based; details: dose 3-10 µM
# LX-2 [7] = assay: Anti-fibrogenic activity in human LX2 cells assessed as inhibition of TGFbeta1-induced CTGF protein level at 3 to 10 uM incubated for 24 hrs by Western blot analysis; assay type: functional, cell-based; details: dose 3-10 µM
# LX-2 [8] = assay: Down regulation of PI3K expression in TGF-beta1 induced human LX2 cells after 24 hrs by Western blot analysis; assay type: functional, cell-based
# LX-2 [9] = assay: Down regulation of STAT3 expression in TGF-beta1 induced human LX2 cells at 3 to 10 uM after 24 hrs by Western blot analysis; assay type: functional, cell-based; details: dose 3-10 µM
# [10] = Anti-fibrogenic activity in human LX2 cells assessed as inhibition of TGFbeta1-induced MMP2 mRNA expression at 10 uM incubated for 24 hrs by RT-PCR analysis; assay type: functional; details: LX-2
# LX-2 [11] = assay: Anti-fibrogenic activity in human LX2 cells assessed as inhibition of TGFbeta1-induced COL1A1 protein level at 3 to 10 uM incubated for 24 hrs by Western blot analysis; assay type: functional, cell-based; details: dose 3-10 µM
# [12] = target: Mothers against decapentaplegic homolog 2/homolog 3 (Homo sapiens) (UniProt P84022+Q15796); assay: Inhibition of TGF-beta1 induced SMAD2/3 phosphorylation in human LX2 cells at 3 to 10 uM incubated for 24 hrs by Western blot analysis; assay type: cell-based; details: dose 3-10 µM
# Sequence of Mothers against decapentaplegic homolog 2/homolog 3 (Homo sapiens) (P84022 whole entry, looked up): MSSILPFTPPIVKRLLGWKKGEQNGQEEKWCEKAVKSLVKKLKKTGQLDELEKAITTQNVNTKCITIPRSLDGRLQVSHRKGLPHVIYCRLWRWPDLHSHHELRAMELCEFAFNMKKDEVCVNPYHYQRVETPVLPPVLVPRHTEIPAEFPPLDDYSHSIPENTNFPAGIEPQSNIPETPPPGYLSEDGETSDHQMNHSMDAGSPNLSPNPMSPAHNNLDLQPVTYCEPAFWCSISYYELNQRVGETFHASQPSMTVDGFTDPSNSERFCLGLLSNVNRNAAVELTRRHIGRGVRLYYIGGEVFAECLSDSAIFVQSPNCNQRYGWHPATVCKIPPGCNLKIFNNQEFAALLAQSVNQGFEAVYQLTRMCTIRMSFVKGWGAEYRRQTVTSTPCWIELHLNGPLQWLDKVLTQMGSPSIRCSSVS
# Sequence of Mothers against decapentaplegic homolog 2/homolog 3 (Homo sapiens) (Q15796 whole entry, looked up): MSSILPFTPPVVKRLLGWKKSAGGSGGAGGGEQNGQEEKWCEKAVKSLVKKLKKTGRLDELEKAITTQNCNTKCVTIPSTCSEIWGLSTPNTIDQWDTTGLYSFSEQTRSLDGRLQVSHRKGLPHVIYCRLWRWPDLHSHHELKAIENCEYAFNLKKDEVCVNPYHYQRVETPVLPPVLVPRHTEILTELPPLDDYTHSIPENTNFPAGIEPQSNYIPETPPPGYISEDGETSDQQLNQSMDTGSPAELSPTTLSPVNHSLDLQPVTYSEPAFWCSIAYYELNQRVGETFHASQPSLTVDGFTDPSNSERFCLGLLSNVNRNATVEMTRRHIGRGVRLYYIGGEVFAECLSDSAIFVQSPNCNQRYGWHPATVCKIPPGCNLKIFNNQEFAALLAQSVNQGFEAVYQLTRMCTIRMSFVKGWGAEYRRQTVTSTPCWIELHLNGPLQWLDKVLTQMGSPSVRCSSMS
# LX2 = assay: Inhibition of PI3K/Akt pathway in human LX2 cells assessed as inhibition of TGF-beta1 induced AKT phosphorylation at 3 to 10 uM incubated for 24 hrs by Western blot analysis; assay type: cell-based; details: dose 3-10 µM
# [13] = Anti-fibrogenic activity in human LX2 cells assessed as inhibition of TGFbeta1-induced MMP2 mRNA expression at 3 uM incubated for 24 hrs by RT-PCR analysis; assay type: functional; details: LX-2
# LX-2 [14] = assay: Anti-fibrogenic activity in human LX2 cells assessed as inhibition of TGFbeta1-induced TGFbeta1 protein level at 3 to 10 uM incubated for 24 hrs by Western blot analysis; assay type: functional, cell-based; details: dose 3-10 µM
# [15] = Anti-fibrogenic activity in human LX2 cells assessed as inhibition of TGFbeta1-induced ACTA2 mRNA expression at 10 uM incubated for 24 hrs by RT-PCR analysis; assay type: functional; details: LX-2
# [16] = Anti-fibrogenic activity in human LX2 cells assessed as inhibition of TGFbeta1-induced CTGF mRNA expression at 10 uM incubated for 24 hrs by RT-PCR analysis; assay type: functional; details: LX-2
# [17] = Anti-fibrogenic activity in human LX2 cells assessed as inhibition of TGFbeta1-induced ACTA2 mRNA expression at 3 uM incubated for 24 hrs by RT-PCR analysis; assay type: functional; details: LX-2
# [18] = Anti-fibrogenic activity in human LX2 cells assessed as inhibition of TGFbeta1-induced TGFbeta1 mRNA expression at 10 uM incubated for 24 hrs by RT-PCR analysis; assay type: functional; details: LX-2
# [19] = target: Mothers against decapentaplegic homolog 3 (Homo sapiens) (UniProt P84022); assay: Inhibition of TGF-beta1 induced SMAD3 phosphorylation in human LX2 cells by Western blot analysis; assay type: cell-based
# Sequence of Mothers against decapentaplegic homolog 3 (Homo sapiens) (P84022 2-425 limits assumed): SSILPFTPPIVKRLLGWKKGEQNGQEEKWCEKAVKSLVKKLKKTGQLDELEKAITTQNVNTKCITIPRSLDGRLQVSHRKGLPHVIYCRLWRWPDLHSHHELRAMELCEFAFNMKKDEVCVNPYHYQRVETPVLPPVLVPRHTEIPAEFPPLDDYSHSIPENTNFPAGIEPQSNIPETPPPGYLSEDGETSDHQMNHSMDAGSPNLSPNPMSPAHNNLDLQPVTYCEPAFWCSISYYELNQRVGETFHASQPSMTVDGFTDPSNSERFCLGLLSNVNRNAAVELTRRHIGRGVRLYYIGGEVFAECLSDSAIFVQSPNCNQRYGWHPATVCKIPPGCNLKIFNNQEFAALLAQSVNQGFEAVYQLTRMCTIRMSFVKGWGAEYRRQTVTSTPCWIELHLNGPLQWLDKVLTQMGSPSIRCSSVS
# [20] = Anti-fibrogenic activity in human LX2 cells assessed as inhibition of TGFbeta1-induced TGFbeta1 mRNA expression at 3 uM incubated for 24 hrs by RT-PCR analysis; assay type: functional; details: LX-2
# [21] = Anti-fibrogenic activity in human LX2 cells assessed as inhibition of TGFbeta1-induced CTGF mRNA expression at 3 uM incubated for 24 hrs by RT-PCR analysis; assay type: functional; details: LX-2
# LX-2 [22] = assay: Down regulation of JAK3 expression in TGF-beta1 induced human LX2 cells at 3 to 10 uM after 24 hrs by Western blot analysis; assay type: functional, cell-based; details: dose 3-10 µM
# Rattus norvegicus [23] = assay: Antifibrotic activity in Sprague-Dawley rat liver assessed as reduction in TGF-beta1-induced alpha-SMA protein expression at 200 mg/kg oral gavage for 14 days by Western blot analysis; assay type: functional, organism-based; details: time 14.0 day
# Rattus norvegicus [24] = species on record: Rattus norvegicus; assay: Anti-fibrotic activity in Sprague-Dawley rat model of BDL-induced […] fibrosis assessed as reduction in hepatic injury by hematoxylin and eosin staining based microscopic analysis; assay type: functional, organism-based
# Rattus norvegicus [25] = assay: Anti-fibrotic activity in Sprague-Dawley rat model of BDL-induced […] fibrosis assessed as reduction in hepatic collagen accumulation in hepatic parenchyma at 200 mg/kg oral gavage for 14 days by Sirius red staining-based analysis; assay type: functional, organism-based; details: time 14.0 day
# Rattus norvegicus [26] = assay: Antifibrotic activity in Sprague-Dawley rat liver assessed as reduction in TGF-beta1-induced COL1A1 protein expression at 200 mg/kg oral gavage for 14 days by Western blot analysis; assay type: functional, organism-based; details: time 14.0 day
# Rattus norvegicus [27] = assay: Antifibrotic activity in Sprague-Dawley rat liver assessed as reduction in TGF-beta1-induced MMP2 protein expression at 200 mg/kg oral gavage for 14 days by Western blot analysis; assay type: functional, organism-based; details: time 14.0 day
# Rattus norvegicus [28] = assay: Antifibrotic activity in Sprague-Dawley rat liver assessed as reduction in TGF-beta1-induced TGF-beta1 protein expression at 200 mg/kg oral gavage for 14 days by Western blot analysis; assay type: functional, organism-based; details: time 14.0 day
# Rattus norvegicus [29] = assay: Anti-fibrotic activity in Sprague-Dawley rat model of BDL-induced […] fibrosis assessed as reduction in hepatic collagen accumulation in portal areas at 200 mg/kg oral gavage for 14 days by Sirius red staining-based analysis; assay type: functional, organism-based; details: time 14.0 day
compound,measurement,setting,value
CC[N+]1(CCCCCCCOc2ccc(-n3cc(C(=O)Nc4cc(F)cc(F)c4)c(=O)c4ccc(N(C)C)nc43)cc2C)CCCC1,inhibition,COL1A1 promoter [1],44.6%
same,CC50 at 24 h,[2],> 100 µM
same,inhibition,COL1A1 promoter [3],82.5%
same,inhibition at 10 µM,[4],48.5%
CC[N+]1(CCCCCCCOc2cc(C)cc(-n3cc(C(=O)Nc4cc(F)cc(F)c4)c(=O)c4ccc(N(C)C)nc43)c2)CCCCC1,inhibition,[5],Active
same,inhibition,LX-2 [6],Active
same,inhibition,COL1A1 promoter [1],67.2%
same,inhibition,LX-2 [7],Active
same,Activity,LX-2 [8],Dose-Dependent Effect
same,Activity,LX-2 [9],Dose-Dependent Effect
same,inhibition at 10 µM,[10],63.7%
same,CC50 at 24 h,[2],97.6 µM
same,inhibition,LX-2 [11],Active
same,inhibition,[12],Dose-Dependent Effect
same,inhibition,LX2,Dose-Dependent Effect
same,inhibition at 3 µM,[13],40.8%
same,inhibition,LX-2 [14],Active
same,inhibition,COL1A1 promoter [3],86.6%
same,inhibition at 10 µM,[15],80.8%
same,inhibition at 10 µM,[16],68.1%
same,inhibition at 10 µM,[4],70.8%
same,inhibition at 3 µM,[17],74.9%
same,inhibition at 10 µM,[18],66%
same,inhibition,[19],Dose-Dependent Effect
same,inhibition at 3 µM,[20],18.9%
same,inhibition at 3 µM,[21],30.8%
same,Activity,LX-2 [22],Dose-Dependent Effect
CN(C)c1ccc2c(=O)c(C(=O)Nc3cc(F)cc(F)c3)cn(-c3ccc(Cl)c(OCCCCCCC[N+](C)(C)C4CCCCC4)c3)c2n1,inhibition,COL1A1 promoter [1],37.6%
same,CC50 at 24 h,[2],> 100 µM
same,inhibition,COL1A1 promoter [3],81.4%
same,inhibition at 10 µM,[4],40.2%
Cc1cc(OCCCCCCC[N+]2(C)CCCCC2)cc(-n2cc(C(=O)Nc3cc(F)cc(F)c3)c(=O)c3ccc(N(C)C)nc32)c1,inhibition,COL1A1 promoter [1],46.8%
same,CC50 at 24 h,[2],99.4 µM
same,inhibition,COL1A1 promoter [3],79.7%
same,inhibition at 10 µM,[4],23.1%
CN(C)c1ccc2c(=O)c(C(=O)Nc3cc(F)cc(F)c3)cn(-c3ccc(OCCCCCCC[N+](C)(C)C4CCCCC4)c(Cl)c3)c2n1,inhibition,COL1A1 promoter [1],34.8%
same,CC50 at 24 h,[2],> 100 µM
same,inhibition,COL1A1 promoter [3],86.2%
same,inhibition at 10 µM,[4],30.2%
CN(C)c1ccc2c(=O)c(C(=O)Nc3cc(F)cc(F)c3)cn(-c3ccc(Cl)c(OCCCCCCC[n+]4ccccc4)c3)c2n1,inhibition,COL1A1 promoter [1],inactive
same,CC50 at 24 h,[2],105 µM
same,inhibition,COL1A1 promoter [3],77.8%
same,inhibition at 10 µM,[4],53.6%
CC[N+]1(CCCCCCCOc2cc(-n3cc(C(=O)Nc4cc(F)cc(F)c4)c(=O)c4ccc(N(C)C)nc43)ccc2C)CCCC1,inhibition,[5],Active
same,Activity,Rattus norvegicus [23],Active
same,inhibition,LX-2 [6],Active
same,Activity,Rattus norvegicus [24],Active
same,inhibition,COL1A1 promoter [1],57%
same,inhibition,LX-2 [7],Active
same,Activity,LX-2 [8],Dose-Dependent Effect
same,Activity,LX-2 [9],Dose-Dependent Effect
same,inhibition at 10 µM,[10],52.4%
same,CC50 at 24 h,[2],95 µM
same,inhibition,LX-2 [11],Active
same,inhibition,[12],Dose-Dependent Effect
same,Activity,Rattus norvegicus [25],Active
same,inhibition,LX2,Dose-Dependent Effect
same,inhibition at 3 µM,[13],36.8%
same,inhibition,LX-2 [14],Active
same,inhibition,COL1A1 promoter [3],81.3%
same,Activity,Rattus norvegicus [26],Active
same,inhibition at 10 µM,[15],83.6%
same,inhibition at 10 µM,[16],67.1%
same,Activity,Rattus norvegicus [27],Active
same,inhibition at 10 µM,[4],79.7%
same,inhibition at 3 µM,[17],76.3%
same,inhibition at 10 µM,[18],47%
same,Activity,Rattus norvegicus [28],Active
same,Activity,Rattus norvegicus [29],Active
same,inhibition,[19],Dose-Dependent Effect
same,inhibition at 3 µM,[20],28.9%
same,inhibition at 3 µM,[21],32%
same,Activity,LX-2 [22],Dose-Dependent Effect
Cc1cc(OCCCCCCC[N+]2(C)CCN(C)CC2)ccc1-n1cc(C(=O)Nc2cc(F)cc(F)c2)c(=O)c2ccc(N(C)C)nc21,inhibition,COL1A1 promoter [1],inactive
same,CC50 at 24 h,[2],< 20 µM
same,inhibition,COL1A1 promoter [3],inactive
CN(C)c1ccc2c(=O)c(C(=O)Nc3cc(F)cc(F)c3)cn(-c3ccc(OCCCCCCC[N+]4(C)CCCC4)cc3F)c2n1,inhibition,COL1A1 promoter [1],inactive
same,CC50 at 24 h,[2],< 20 µM
same,inhibition,COL1A1 promoter [3],inactive
